Assay results reported in a melting point compilation (Tetko et al.; mined from patent text by program, amines drawn as free bases though some values may be those of a salt).

Structure (SMILES)	melting point [°C]
CS(=O)(=O)c1ccc(C(=O)c2cnoc2C2CC2)c2c1OC(F)(F)O2	164 to 165
O=c1[nH]nc2n1-c1ccc(Cl)nc1C(c1ccccc1)=[N+]([O-])C2	268 to 270
[N-]=[N+]=NC[C@H]1CN(c2ccc(N3CCSCC3)c(F)c2)C(=O)O1	91.5 to 93
CCCCCCCCCCCCc1nnn(C(C(N)=O)c2c(C(C)C)cccc2C(C)C)n1 (configuration not stated)	91 to 93
CNC(=O)N(C)c1nnc(C(C)(C)CC#N)s1	133 to 135
CC(=O)C1=C(C)CC2C3CCC4CC5OC5CC4(C)C3C(=O)CC12C (configuration not stated)	155 to 157
Cn1cnc2nc(Oc3ccccc3)nn2c1=S	209 to 211
COc1ccc(CN(CCN(C)CCCNC(=NCCCOc2cccc(CN3CCCCC3)c2)NC#N)c2ccccn2)cc1	62 to 65
CCOC(=O)C1=CC2(CCC1S(=O)(=O)Nn1cccc1)OCCO2 (configuration not stated)	115 to 117
CC(=O)c1ccc(Oc2ccc(F)cc2F)c(NS(C)(=O)=O)c1	142 to 143
COC(=O)COc1cccc2c(CCSC(c3ccc(O)cc3)c3ccc(O)cc3)c(C)oc12	178 to 180
O=C1CSCN1CC#CCN1CCC(n2c(=O)[nH]c3ccccc32)CC1	202 to 204
CCn1cc(C(=O)O)c(=O)c2cc(F)c(N3CCN4CCC3CC4)c(F)c21	261 to 263
CC(CCC(F)(F)C(C)(C)O)C1CCC2C3CCC4=CC(=O)CCC4(C)C3CCC12C (configuration not stated)	177 to 178
C#CC(C)(C)NC(=O)c1cnc(N2CCC(N3C(=O)OCc4ccccc43)CC2)c(Cl)c1	135 to 138
CCCCCN(CC(=O)OCC)C(=O)C(CCC(=O)O)CS(=O)(=O)c1ccc2ccccc2c1 (configuration not stated)	77 to 80
CCOC(=O)c1c(CN(CC)CC)nc2cc(OC)c(OC)cc2c1-c1ccc(OC)cc1	118 to 119
CN(C)C(=O)N(C)c1cc(C(C)(C)C)on1	90 to 91
Cc1c(Nc2c(C#N)cnc3sc(-c4ccc(OCCN(C)C)cc4)cc23)ccc2[nH]ccc12	182 to 184
CN(C)C(=O)c1cc2c(nc(C3CC3)n2C)c2c1CCC(c1ccccc1)O2 (configuration not stated)	176 to 179
COC(=O)c1nc(-c2ccc(O)nc2)cc(N)c1Cl	251 to 252
CCOC(=O)c1c(N)n(C)c2cc(Cl)ccc12	155 to 157
CCCCCC(C)C(C)c1cc(O)c2c3c(c(=O)oc2c1)CSCC3 (configuration not stated)	150 to 152
CCCc1c(OCCCCCOc2c(C(C)=O)ccc(OCC(=O)O)c2CCC)ccc(C(C)=O)c1O	86 to 89

Structure (SMILES)	melting point [°C]
CO[C@@H]1C[C@H]2[C@H](C(=O)O)[C@H]2[C@]1(N)C(=O)O	> 250
COc1cc(C)cc2c1C(C)(C)CCC2(C)C	49 to 50
Cc1ccc(S(=O)(=O)NCC[C@@H](NS(=O)(=O)c2ccc(C)cc2)C(=O)NO)cc1	152 to 153
N#Cc1c[nH]c2c(NS(=O)(=O)c3ccc(N)nc3)cccc12	> 300
CC(C)C(=O)OCC(COC(=O)C(C)C)OCn1cnc2c(=O)[nH]c(N)nc21	193 to 198
CC=COC1=C(O)C(CCC=CCCCCCCCCCCCCCC)OC1=O (configuration not stated)	42 to 45
CC(NC(=O)c1cc2ccccc2[nH]1)C(=O)O (racemic)	240
CCCCCCCCN1C=C(C)C(=c2c(C)cc(=CC=C3C=C(C(C)(C)C)C(=O)C(C(C)(C)C)=C3)cc2C)C(C)=C1	> 280
CCN(CC)CCCNC(=S)N1CC(Oc2ccc(C(F)(F)F)cc2)C1	109 to 110
C[C@H](N)C(=O)NC1N=C(C2CCCCC2)c2ccccc2N(C)C1=O (some centres not stated)	205 to 206
COC(=O)c1cn2c(=O)c(Cl)c(C)nc2s1	218 to 220
O=C(CCCCCCCCc1ccc(Cl)cc1)NO	48 to 50
COc1cc2sc(C(=O)Cl)c(Cl)c2cc1OC	191 to 199
C1=CC(n2nc(-c3cccc4ccccc34)cc2-c2ccccc2)(n2nc(-c3cccc4ccccc34)cc2-c2ccccc2)CC=C1c1ccccc1	264
Cc1nnc(CN2CCCC2)n1-c1ccc(Cl)cc1C(=O)c1ccccc1	174 to 176
CCOc1nc2c(Cl)cccc2s1	43 to 45
C#CCNC(=NCCSCc1nccs1)NC#N	138 to 140
CCOC(=O)C(=CNc1nnn[nH]1)C(=O)c1cc(F)c(Cl)nc1Cl	150 to 152
Cc1c(C(F)(F)F)noc1OCC(=O)O	73.5 to 76
COCCc1nc2c(N)nc3ccccc3c2n1CCCNC(=O)OC(C)(C)C	174 to 176
CS(=O)(=O)Nc1ccccc1OC1CCCCC1=O (configuration not stated)	104 to 106
CC1CC2C3CC(Cl)C4=CC(=O)C=CC4(C)C3(Cl)C(O)CC2(C)C1C(=O)CO (configuration not stated)	230
COc1ccc(Nc2ccc(Nc3ccnc4cc(-c5ccc(OC)nc5)sc34)cc2)cc1	175 to 184
C#CC1(O)CCC2(C)C(CCC3C2CCC2(C)C(C(C)=O)CCC32)C1 (configuration not stated)	196 to 197

Next, values leading:

melting point [°C]	Structure (SMILES)
201 to 203	Nc1cc(-c2cccnc2)cc2nc(-c3ccccc3)nn12
> 300	O=c1[nH]c2[nH]c3ccc(Cl)cc3c2c2ccccc12
87 to 91	COc1ccccc1N(CCN1CCC(C(=O)c2ccc(F)cc2)CC1)C(=O)c1ccc(CO)cc1
115 to 116	CCCS(=O)c1cc(OCCOc2ccccc2)ccc1C (configuration not stated)
158	COc1cc(-c2[nH]c(SC)nc2-c2ccc(F)cc2)ccn1
143 to 145	Cc1ccccc1C1SC2(CCN(CCCC(=O)c3ccc(F)cc3)CC2)c2ccccc21 (configuration not stated)
244	CC(NC(=O)Cc1cc(F)cc(F)c1)C(=O)NC1C(=O)NC(c2ccccc2)c2ccccc21 (configuration not stated)
143	CCOC(=O)N1CCN(c2cn(C)c3nc(OCc4ccccn4)ccc23)C(=O)C1
144	COc1ccccc1-c1nc(=O)c2ccccc2s1
104 to 106	O=C1CNC(c2cccc(Cc3ccccc3)c2)=NN1CC(F)(F)F
210 to 212	COc1cn(-c2cccnc2)nc(-c2ccnn2-c2ccccc2)c1=O
188 to 190	COc1cc(C(=O)Nc2nc(C)c(C(=O)NCc3ccccc3)s2)ccn1
49 to 50	NC(=O)CNC(=O)c1ccnc(-c2cccc3sc(Cc4cccc(C(F)(F)F)c4)cc23)c1
282 to 284	COc1ccc2c(=O)c3oc4c5ccccc5ccc4c3oc2c1
219 to 220	O=C1N(Cc2cccnc2C(F)(F)F)c2ccccc2C12COc1cc3c(cc12)OCCO3 (configuration not stated)
181 to 183	O=C1c2cscc2Nc2ccccc2N1Cc1ccc(Cl)c(C(F)(F)F)c1
14	COC(=O)c1ccc(Oc2ccc(Oc3ccccc3)cc2)cc1
204	COc1ccc2c(CC(=O)O)c(C(=O)c3cc(C)ccn3)[nH]c2c1
88 to 90	O=C(Nc1cccc(Br)c1)Oc1ccccc1
115 to 118	COc1cc(CCNC(=O)[C@@H](NC(=O)OC(C)(C)C)C(C)C)ccc1OCc1ccccc1
199 to 200	CC(C)(C)c1cc2c(cc1Br)C=C(C(=O)O)C(C(F)(F)F)O2 (configuration not stated)
156 to 159	O=C(O)c1c[nH]c(Sc2ccc(Cl)c(Cl)c2)c1
146 to 148	COc1ccc(SC2=C(C(=O)O)CCC2=CCCc2ccccc2)cc1OC
95 to 97	O=c1c(I)coc2ccccc12
> 300	CC(C)(C)n1cnc2c(O)nc3ccccc3c21

melting point [°C]	Structure (SMILES)
189 to 191	COc1cc2cc(C(=O)N3CC(CCl)c4c3cc(N3C(=O)c5ccccc5C3=O)c3ncccc43)[nH]c2c(OC)c1OC (configuration not stated)
92 to 93	CCOc1nn(Cc2ccc(OCc3cncc(-c4ccccc4)c3)cc2)cc1CCC(=O)O
221 to 222	CON(C)C(=O)Nc1c(C(=O)c2occc2CO)[nH]c2cc(Cl)ccc12
82 to 86	COc1cc(C(=O)c2ccccc2N)ccn1
152 to 155	CCOCc1nc2c(N)nc3ccccc3c2n1NCc1ccccc1
311 to 315	Cn1ccc2c3c(c(-c4ccccc4S(C)=O)cc21)C(=O)NC3=O (configuration not stated)
100	Cc1ccc(CN(C(=O)Nc2c(C(C)C)cccc2C(C)C)c2ccc(C(C)C)cc2)c(C)c1
141 to 144	COc1ccc(F)cc1C(C)(C)CC(O)(Cn1[nH]c(=O)c2ccccc21)C(F)(F)F (configuration not stated)
125 to 129	CS(C)=Nc1nc(OCc2ccccc2)ncc1F
80 to 81.6	CCCCN(C)C(=O)c1cccc(-c2nc(=O)c3ccccc3s2)n1
113 to 115	COc1ccc(-n2nc(CCCO)c(Cl)c2-c2ccc(Cl)cc2)cc1
141 to 143	O=C(c1ccc(O)c(O)c1)c1cccc(C(Cc2ccccc2)Cc2ccccc2)n1
148 to 149	Cn1c(COc2ccc(CC(OCc3ccc(F)cc3)C(=O)O)cc2)nc2ccc(Oc3ccc(C45CC6CC(CC(C6)C4)C5)cc3)cc21 (configuration not stated)
170 to 171	CCOC(=O)c1cc(OCN2C(=O)c3c(C(C)C)cc(OC)cc3S2(=O)=O)n(-c2ccccc2)n1
218 to 219	CCOC(=O)[C@H](Cc1ccc(-c2c(C)n(C)c(=O)n(C)c2=O)cc1)NC(=O)c1c(F)cccc1F
195 to 197	N#CC1C(=O)c2ccccc2Nc2ccccc21 (configuration not stated)
87 to 89	O=C(Nc1ccccc1N1CCc2ccccc21)C1CCCCC1
136 to 138	C=CCSc1cn(C)cc(-c2ccccc2)c1=O
148 to 150	NC(=O)c1cn(C(CO)COc2ccccc2)cn1 (configuration not stated)
233 to 235	O=C1NC(=O)c2c1c(-c1cccc(Cl)c1Cl)cc1[nH]c3ccc(O)cc3c21
224 to 226	Cc1c2ccccc2c(-c2cc(Br)c(O)c(Br)c2)c2c1sc1ccccc12
102 to 103	CCC(CC)c1nn(-c2ccc(C(F)(F)F)cn2)cc1CCCOc1c(F)cccc1CC(=O)O
230 to 235	CSc1cc2c(cc1F)C(=O)c1cc3ccccc3cc1C2=O
149 to 151	CC1OC(c2cc(-n3c(=O)cc(C(F)(F)F)n(C)c3=O)ccc2Cl)OC1C (configuration not stated)
